Patent publication US6638945B1, “Quinoline derivatives as inhibitors of MEK enzymes” (AstraZeneca AB, priority 1999, dated 2003)

Molecular target: human p45MEK1 (GST-MEK) (Homo sapiens, UniProt Q02750)
Test: Assay for inhibitors of the MAP kinase pathway (coupled GST-MEK/GST-MAPK/MBP 33P assay)
Assay type: biochemical
Conditions: GST-MEK activated by c-raf, 33P incorporation into myelin basic protein
Procedure: Assay for inhibitors of the MAP kinase pathway
To evaluate inhibitors of the MAPK pathway a coupled assay was carried out which measures phosphorylation of serine/threonine residues present in the substrate in the presence or absence of inhibitor. Recombinant glutathione S-transferase fusion protein containing human p45MEK1 (GST-MEK) was activated by c-raf (Sf9 insect cell lysate from triple baculoviral infection with c-raf/ras/lck) and used for the assay. Active GST-MEK was first used to activate a recombinant glutathione S-transferase fusion protein containing p44MAP kinase (GST-MAPK) in the presence of ATP and Mg^2+ for 60 min at room temperature in the presence or absence of potential inhibitors. The activated GST-MAPK was then incubated with myelin basic protein (MBP) as substrate for 10 min at room temperature in the presence of ATP, Mg^2+ and ^33P-ATP. The reaction was stropped by addition of 20% v/v phosphoric acid. Incorporation of ^33P into the myelin basic protein was determined by capture of the substrate on a filter mat, washing and counting using scintillation methods. The extent of inhibition was determined by comparison with untreated controls.
The final assay solution contained 10 mM Tris, pH 7.5, 0.05 mM EGTA, 8.33 μM [γ^33P]ATP, 8.33 mM Mg(OAc)2, 0.5 mM sodium orthovanadate, 0.05% w/v BSA, 6.5 ng GST-MEK, 1 μg GST-MAPK and 16.5 μg MBP in a reaction volume of 60 μl.

Chain of human p45MEK1 (GST-MEK) (Q02750 whole entry): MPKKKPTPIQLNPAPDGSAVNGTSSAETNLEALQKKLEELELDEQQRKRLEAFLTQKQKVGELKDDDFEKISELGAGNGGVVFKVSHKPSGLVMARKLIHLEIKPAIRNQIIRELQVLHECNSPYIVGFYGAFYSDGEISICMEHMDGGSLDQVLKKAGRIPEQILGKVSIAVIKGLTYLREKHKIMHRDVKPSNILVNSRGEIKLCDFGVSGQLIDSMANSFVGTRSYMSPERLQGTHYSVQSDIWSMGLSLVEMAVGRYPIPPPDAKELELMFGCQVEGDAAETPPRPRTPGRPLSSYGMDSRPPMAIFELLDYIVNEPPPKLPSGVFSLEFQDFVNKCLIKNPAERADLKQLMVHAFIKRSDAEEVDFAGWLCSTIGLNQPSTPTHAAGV

IC50: 550 nM
SMILES: COc1cc2ncc(F)c(Nc3ccc(Oc4ccccc4)cc3)c2cc1OC [Compound No 5]
